One experiment concerns the target T1, mu opioid receptor (Rattus norvegicus, UniProt P33535).
T1 construct: the forebrains were homogenized in Tris buffer in a Teflon®-glass homogenizer; from tissue; host or cells: forebrain of male Wistar rats, particulate (membrane) preparation
Put plainly: Rat brain mu opioid receptor binding assay. The following applies: rat forebrain, [3H]DAMGO ligand.

The target of experiment [1] is T2, delta opioid receptor (Rattus norvegicus, UniProt P33533).
T2 construct: the forebrains were homogenized in Tris buffer in a Teflon®-glass homogenizer; from tissue; host or cells: forebrain of male Wistar rats, particulate (membrane) preparation
T2 sequence (P33533 whole entry): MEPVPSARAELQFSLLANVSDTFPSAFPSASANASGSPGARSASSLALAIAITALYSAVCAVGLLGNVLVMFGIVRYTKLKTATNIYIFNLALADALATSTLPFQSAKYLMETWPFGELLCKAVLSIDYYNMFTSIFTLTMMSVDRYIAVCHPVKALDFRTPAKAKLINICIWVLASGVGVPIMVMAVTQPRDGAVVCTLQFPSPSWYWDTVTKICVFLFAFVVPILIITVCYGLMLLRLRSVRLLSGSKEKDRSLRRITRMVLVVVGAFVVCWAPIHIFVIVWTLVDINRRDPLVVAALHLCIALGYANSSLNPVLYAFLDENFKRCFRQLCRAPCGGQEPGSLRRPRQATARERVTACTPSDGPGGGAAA
Put plainly: Rat brain delta opioid receptor binding assay. The following applies: rat forebrain.

Experiment [2] addresses T3, delta opioid receptor (Mus musculus, UniProt P32300).
T3 construct: NG108-15 cell membranes were purchased from Applied Cell Sciences (Rockville, Md.); host or cells: NG108-15 cell membranes
In words: [35S]GTPγS binding assay in NG108-15 cell membranes (delta opioid functional assay), 200 nM screen. The format is biochemical. As to conditions: NG108-15 cell membranes; for EC50: averages if tested more than once, read-out: GTPγS δ-opioid receptor EC50. Background: GTPγS is a poorly hydrolysed GTP analogue; its binding reports G protein activation.

The mark [3] stands for this setting: δ-binding (Naltrindole ligand) Ki, [3H]naltrindole ligand.
Where [4] appears, read: [3H]naltrindole ligand, read-out: δ-binding (Naltrindole ligand) Ki.

This note sets out measurements from patent US8513271B2, “Pyrimidine compounds as delta opioid receptor modulators” (Janssen Pharmaceutica, NV, priority 2009, dated 2013).

Read-outs that look alike come from different tables or passages of the source.

T3 sequence (P32300 whole entry): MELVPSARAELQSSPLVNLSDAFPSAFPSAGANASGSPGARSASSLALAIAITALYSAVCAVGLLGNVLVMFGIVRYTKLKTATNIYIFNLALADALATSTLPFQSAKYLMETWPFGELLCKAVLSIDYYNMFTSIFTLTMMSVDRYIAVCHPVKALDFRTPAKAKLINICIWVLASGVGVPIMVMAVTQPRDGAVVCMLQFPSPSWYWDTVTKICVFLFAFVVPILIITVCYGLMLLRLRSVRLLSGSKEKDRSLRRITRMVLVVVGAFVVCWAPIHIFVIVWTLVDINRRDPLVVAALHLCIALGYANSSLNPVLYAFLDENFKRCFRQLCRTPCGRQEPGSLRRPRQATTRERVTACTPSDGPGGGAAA
T1 sequence (P33535 whole entry): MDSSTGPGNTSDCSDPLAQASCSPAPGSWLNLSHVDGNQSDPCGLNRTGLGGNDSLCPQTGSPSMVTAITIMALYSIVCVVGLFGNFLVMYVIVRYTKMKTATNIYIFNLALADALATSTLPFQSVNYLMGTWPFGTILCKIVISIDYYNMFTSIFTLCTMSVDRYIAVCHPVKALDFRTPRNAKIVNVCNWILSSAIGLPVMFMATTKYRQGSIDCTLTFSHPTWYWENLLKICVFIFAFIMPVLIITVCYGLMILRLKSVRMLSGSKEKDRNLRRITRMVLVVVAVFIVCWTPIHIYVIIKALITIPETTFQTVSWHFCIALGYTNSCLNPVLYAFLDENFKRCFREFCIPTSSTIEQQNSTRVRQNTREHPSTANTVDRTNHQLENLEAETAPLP

Turning to `COc1ccc(-c2ncc(NC[C@@H]3CCCN3)c(Oc3ccc(F)cc3)n2)cn1` [Cpd 37], the figures for the Ki on mu opioid receptor (read-out: μ-binding Ki) and on delta opioid receptor [1] (setting [3]) were > 10 µM and 0.01 µM, respectively.
For `COc1ccc(Oc2nc(-c3noc(=O)[nH]3)ncc2NC[C@@H]2CCCN2)cc1` [Cpd 35, 3-{4-(4-Methoxy-phenoxy)-5-[(pyrrolidin-2-(S)-ylmethyl)-amino]-pyrimidin-2-yl}-4H-[1,2,4]oxadiazol-5-one], the Ki on mu opioid receptor (read-out: μ-binding Ki) and at delta opioid receptor [1] (setting [4]) was 0.184 µM throughout.
Take `COc1ccc(Oc2nc(-c3cccc([N+](=O)[O-])c3)ncc2NC[C@@H]2CCCN2)cc1` [Cpd 29]: the Ki on mu opioid receptor (read-out: μ-binding Ki) was determined as 2.66 µM; at delta opioid receptor [1] (setting [3]), 0.086 µM.
For `COc1ccc(Oc2nc(-c3cccc(F)c3)ncc2NC[C@@H]2CCCN2)cc1` [Cpd 38], in that order: 4.91 µM and 0.001 µM.
With `COc1ccc(Oc2nc(-c3ccoc3)ncc2NC[C@@H]2CCCN2)cc1` [Cpd 10], the inhibition constant Ki was found to be 2 µM at mu opioid receptor (read-out: μ-binding Ki) and 0.034 µM on delta opioid receptor [1] (setting [3]).
The like results for `COc1ccc(Oc2nc(-c3nc4ccccc4s3)ncc2NC[C@@H]2CCCN2)cc1` [Cpd 47] were, in that order, 1.13 µM and 0.006 µM.
The like results for `Fc1ccc(Oc2nc(-c3cccnc3)ncc2NC[C@@H]2CCCN2)cc1` [Cpd 36] were, in that order, 4.77 µM and 0.003 µM.
Consider `COc1ccc(Oc2nc(-c3ccc4ccccc4c3)ncc2NC[C@@H]2CCCN2)cc1` [Cpd 6], for which the figures for the Ki at mu opioid receptor (read-out: μ-binding Ki) and on delta opioid receptor [1] (setting [4]) were 9.01 µM and 0.116 µM, respectively.
In the case of `COc1ccc(Oc2nc(-c3cncnc3)ncc2NC[C@@H]2CC(F)(F)CN2)cc1` [Cpd 79], the values for the Ki at mu opioid receptor (read-out: μ-binding Ki) and at delta opioid receptor [1] (setting [3]) were > 10 µM and 0.095 µM, respectively.
The like results for `COc1ccc(Oc2nc(-c3cnc(N4CCOCC4)nc3)ncc2NC[C@@H]2CCCN2)cc1` [Cpd 83] were, in that order, 0.673 µM and 0.014 µM.
For `Oc1ccc(Oc2nc(-c3ccc(O)nc3)ncc2NCC2CCCN2)cc1` (stereo not drawn) [Cpd 75], in that order: 5.12 µM and 0.036 µM.
For `COc1ccc(Oc2nc(-c3cnc(O)nc3O)ncc2NC[C@@H]2CCCN2)cc1` [Cpd 27], the inhibition constant (Ki) is 15.5 µM at mu opioid receptor (read-out: μ-binding Ki) and 2.57 µM at delta opioid receptor [1] (setting [4]).
Regarding `COc1ccc(Oc2nc(-c3cccc(NC(C)=O)c3)ncc2NC[C@@H]2CCCN2)cc1` [Cpd 42], the Ki on mu opioid receptor (read-out: μ-binding Ki) came out at 1.23 µM; at delta opioid receptor [1] (setting [3]) it was 0.016 µM.
The like results for `COc1ccc(Oc2nc(-c3cccc(C#N)c3)ncc2NC[C@@H]2CCCN2)cc1` [Cpd 28] were, in that order, 0.295 µM and 0.0061 µM.
As to `Nc1ccc(Oc2nc(-c3cccnc3)ncc2NC[C@@H]2CCCN2)cc1` [Cpd 46], the Ki on mu opioid receptor (read-out: μ-binding Ki) amounted to 3.55 µM; on delta opioid receptor [1] (setting [3]), 0.027 µM.
The like results for `COc1ccc(Oc2nc(-c3cccc(C(F)(F)F)c3)ncc2NC[C@@H]2CCCN2)cc1` [Cpd 50] were, in that order, 0.597 µM and 0.055 µM.
Consider `COc1ccc(Oc2nc(-c3cccc4cccnc34)ncc2NC[C@@H]2CCCN2)cc1` [Cpd 17], for which the inhibition constant (Ki) at mu opioid receptor (read-out: μ-binding Ki) was 3.08 µM; at delta opioid receptor [1] (setting [3]) it was 0.03 µM.
On to `COc1ccc(Oc2nc(-c3ccc(O)cc3)ncc2NC[C@@H]2CCCN2)cc1` [Cpd 33], for which the Ki on mu opioid receptor (μ-binding Ki) and at delta opioid receptor [1] (setting [3]) was 0.029 µM each time.
Regarding `COc1ccc(Oc2nc(-c3cccc4nc(C)ccc34)ncc2NC[C@@H]2CCCN2)cc1` [Cpd 18], the Ki at mu opioid receptor (read-out: μ-binding Ki) stood at 2.24 µM; at delta opioid receptor [1] (setting [4]), 0.172 µM.
With `COc1ccc(Oc2nc(-c3ccc4nonc4c3)ncc2NC[C@@H]2CCCN2)cc1` [Cpd 78], the Ki came out at 1.88 µM at mu opioid receptor (read-out: μ-binding Ki) and 0.075 µM at delta opioid receptor [1] (setting [3]).
As to `COc1ccc(Oc2nc(-c3ccc4sc5ccccc5c4c3)ncc2NC[C@@H]2CCCN2)cc1` [Cpd 21], the Ki was 2.39 µM on mu opioid receptor (read-out: μ-binding Ki) and 0.201 µM at delta opioid receptor [1] (setting [4]).
The like results for `COc1ccc(Oc2nc(-c3ccsc3)ncc2NC[C@@H]2CCCN2)cc1` [Cpd 9] were, in that order, 2.97 µM and 0.001 µM.
In the case of `NC(=O)c1ccc(Oc2nc(-c3cccnc3)ncc2NC[C@@H]2CCCN2)cc1` [Cpd 12], the Ki at mu opioid receptor (read-out: μ-binding Ki) was determined as 4.52 µM; on delta opioid receptor [1] (setting [3]), 0.018 µM.
The like results for `COc1ccc(Oc2nc(-c3cnc(OC)nc3)ncc2NC[C@@H]2CCCN2)cc1` [Cpd 53] were, in that order, 0.591 µM and 0.0002 µM.
The like results for `FC(F)(F)Oc1ccc(Oc2nc(-c3cccnc3)ncc2NC[C@@H]2CCCN2)cc1` [Cpd 11] were, in that order, 3.08 µM and 0.005 µM.
`COc1ccc(Oc2nc(-c3cccc(S(C)(=O)=O)c3)ncc2NC[C@@H]2CCCN2)cc1` [Cpd 32]: the inhibitory constant (Ki) at mu opioid receptor (μ-binding Ki) turned out to be 0.0641 µM; at delta opioid receptor [1] (setting [3]), 0.0126 µM.
The like results for `COc1ccc(Oc2nc(-c3ccc4[nH]ccc4c3)ncc2NC[C@@H]2CCCN2)cc1` [Cpd 34] were, in that order, 0.015 µM and 0.015 µM.
For `COc1cccc(Oc2nc(-c3cncc(C#N)c3)ncc2NC[C@@H]2CCCN2)c1` [Cpd 98], the inhibition constant (Ki) at mu opioid receptor (read-out: μ-binding Ki) came to 0.102 µM; on delta opioid receptor [1] (setting [3]), 0.003 µM.
For `COc1ccc(Oc2nc(-c3cc(F)cc(F)c3)ncc2NC[C@@H]2CCCN2)cc1` [Cpd 55], in that order: 2.05 µM and 0.021 µM.
For the compound `COc1ccc(Oc2nc(-c3ccccc3OC)ncc2NC[C@@H]2CCCN2)cc1` [Cpd 4], the inhibition constant (Ki) is > 10 µM at mu opioid receptor (read-out: μ-binding Ki) and 2.22 µM at delta opioid receptor [1] ([3H]DPDPE ligand, read-out: δ-binding (DPDPE ligand) Ki).
With `COc1ccc(Oc2nc(-c3cccc(C(N)=O)c3)ncc2NC[C@@H]2CCCN2)cc1` [Cpd 30], the inhibition constant Ki on mu opioid receptor (read-out: μ-binding Ki) was 1.09 µM; at delta opioid receptor [1] (setting [3]) it was 0.003 µM.
For `COc1ccc(Oc2nc(-c3ccc4nccnc4c3)ncc2NC[C@@H]2CCCN2)cc1` [Cpd 76], the Ki on mu opioid receptor (read-out: μ-binding Ki) stood at 0.333 µM; at delta opioid receptor [1] (setting [4]), 0.111 µM.
The like results for `COc1ccc(-c2ncc(NC[C@@H]3CCCN3)c(Oc3ccc(N)cc3)n2)cn1` [Cpd 44] were, in that order, 2.69 µM and 0.004 µM.
The like results for `CC(=O)Nc1ccc(Oc2nc(-c3cccnc3)ncc2NC[C@@H]2CCCN2)cc1` [Cpd 13] were, in that order, 5.57 µM and 0.002 µM.
Consider `COc1ccccc1Oc1nc(-c2cccnc2)ncc1NC[C@@H]1CCCN1` [Cpd 40], for which the Ki on mu opioid receptor (read-out: μ-binding Ki) came out at 7.64 µM; on delta opioid receptor [1] (setting [3]) it was 0.093 µM.
For `COc1ccc(Oc2nc(-c3cnc(N4CCN(C)CC4)nc3)ncc2NC[C@@H]2CCCN2)cc1` [Cpd 84], the figures for the Ki on mu opioid receptor (read-out: μ-binding Ki) and at delta opioid receptor [1] (setting [4]) were 0.338 µM and 0.016 µM, respectively.
Consider `COc1ccc(Oc2nc(-c3cc4ccccc4s3)ncc2NC[C@@H]2CCCN2)cc1` [Cpd 49], for which the inhibition constant Ki on mu opioid receptor (read-out: μ-binding Ki) came out at 3.56 µM; at delta opioid receptor [1] (setting [4]), 0.103 µM.
As to `COc1ccc(Oc2nc(-c3cccc(O)c3)ncc2NC[C@@H]2CCCN2)cc1` [Cpd 15], the Ki at mu opioid receptor (read-out: μ-binding Ki) turned out to be 0.416 µM; at delta opioid receptor [1] (setting [3]), 0.0001 µM.
Consider `c1ccc(Oc2nc(-c3cccnc3)ncc2NC[C@@H]2CCCN2)cc1` [Cpd 14], for which the Ki was found to be 1.73 µM on mu opioid receptor (read-out: μ-binding Ki) and 0.001 µM at delta opioid receptor [1] (setting [3]).
With `COc1ccc(Oc2nc(-c3c(C)noc3C)ncc2NC[C@@H]2CCCN2)cc1` [Cpd 62], the values for the Ki at mu opioid receptor (read-out: μ-binding Ki) and at delta opioid receptor [1] (setting [4]) were 1.92 µM and 0.544 µM, respectively.
Regarding `COc1ccc(Oc2nc(-c3cncc(C#N)c3)ncc2NC[C@H]2COCCN2)cc1` [Cpd 280], the EC50 at delta opioid receptor [2] was 0.181 µM. The “GTPγS δ-opioid receptor Rel Efficacy” value on delta opioid receptor [2] (relative efficacy from dose response) is recorded as 0.998. Moreover, the Ki at delta opioid receptor [1] (setting [4]) was determined as 0.006 µM.
Turning to `COc1cccc(Oc2nc(-c3cccnc3)ncc2NC[C@@H]2CCCN2)c1` [Cpd 100], the concentration for a half-maximal effect (EC50) at delta opioid receptor [2] was determined as 1.62 µM. On delta opioid receptor [1] (setting [3]), this compound displayed an inhibition constant (Ki) of 0.033 µM.
The like results for `COc1ccc(Oc2nc(-c3cc(C)cc(C)c3)ncc2NC[C@@H]2CCCN2)cc1` [Cpd 92] were, in that order, 0.47 µM and 0.035 µM.

As usually defined, the Ki is the equilibrium dissociation constant of an inhibitor or competing ligand from its target. In general, EC50 refers to the midpoint of the concentration-response curve.
